Laboratory results published in US9637523B2 (priority 2012, dated 2017).
“Also recorded” adds a separate entry of the source.

Experiments:
human IAV PR8 = assay type: cell-based
[1] = system: PB1, NS1, NP and M1 of IAV; assay type: cell-based
avian IAV FPV = assay type: cell-based
[2] = system: polymerase subunits PB1, PB2, PA and NP of the avian IAV FPV-Rostock; assay type: cell-based, A/FPV/Rostock/34 (H7N1)

Cc1ccc(NC(=O)c2ccc(CN3CCN(C)CC3)cc2)cc1Nc1nccc(-c2cccnc2)n1 [Imatinib]
replication (progeny virus yields) of human IAV PR8 (human IAV PR8): absolutely independent of the tyrosine kinase activity of c-Abl
viral protein expression [1]: neither detect an impact
replication (progeny virus yields) of avian IAV FPV (avian IAV FPV): interferes with replication properties of the avian IAV FPV in a concentration dependent manner; also recorded: only efficient upon low dose infection
viral polymerase activity (luciferase) [2]: neither detect an impact
